For 16 molecules, IC50 results are on record in US12371454B2, “Cyclic peptide compound having Kras inhibitory action” (priority 2019, dated 2025).

Molecules are shown by their SMILES. Positions of bridges follow the written chain, without caps; N, C: chain ends. Non-standard residues stand in square brackets, D forms with d. Residues, ends and D or L forms follow the SMILES beside them. *: point of attachment. hPhe(3-Cl-4-CF3) = N[C@@H](CCc1ccc(C(F)(F)F)c(Cl)c1)C(=O)O; hPhe(3-F,4-CF3) = N[C@@H](CCc1ccc(C(F)(F)F)c(F)c1)C(=O)O; Pro(cis-4-Ph) = O=C(O)[C@@H]1C[C@H](c2ccccc2)CN1; NMePhe(4-Me) = CN[C@@H](Cc1ccc(C)cc1)C(=O)O; NMeGly(cPent) = CN[C@H](C(=O)O)C1CCCC1; NMeAla(cPr) = CN[C@@H](CC1CC1)C(=O)O; NMeGly(cBu) = CN[C@H](C(=O)O)C1CCC1; NMeCha = CN[C@@H](CC1CCCCC1)C(=O)O; Gly(N-(CH2)2OEt) = CCOCCNCC(=O)O; Hyp = O=C(O)[C@@H]1C[C@@H](O)CN1; NMeChg = CN[C@H](C(=O)O)C1CCCCC1; NMeD = CN[C@@H](CC(=O)O)C(=O)O; NMeL = CN[C@@H](CC(C)C)C(=O)O; NMeNle = CCCC[C@H](NC)C(=O)O; NMeV = CN[C@H](C(=O)O)C(C)C; d(β3hA) = C[C@@H](N)CC(=O)O; NMeS = CN[C@@H](CO)C(=O)O; NMeA = CN[C@@H](C)C(=O)O; Piperidide = C1CCN(*)CC1; Pyrrolidide = C1CCN(*)C1; Ac5c = NC1(C(=O)O)CCCC1; Aze = O=C(O)[C@@H]1CCN1; Isopentyl = CC(C)CC*; Sar = CNCC(=O)O; Propyl = CCC*

Usually IC50 stands for the concentration at which inhibition is half-maximal. Higher therefore signals a need for much substance.

The test system of the test is Human pancreatic cancer cell line AsPC-1. Description: Measurement of AsPC-1 cell growth inhibition (AsPC-1 CGI). Format: cell-based. As to conditions: 96 h. On the procedure: Measurement of AsPC-1 Cell Growth Inhibition (AsPC-1 CGI)
Test compounds were serially diluted with dimethyl sulfoxide, and 200 nL was then dispensed to a U-bottom 96-well plate using Labcyte Echo. Human pancreatic cancer cell line AsPC-1 was suspended in RPMI-1640 medium supplemented with 15% fetal bovine serum to prepare a cell suspension at 1000 cells/100 μL. The cell suspension was dispensed to a plate containing a test compound at 100 μL per well and incubated at 37° C. in a 5% carbon dioxide gas incubator. 96 hours later, 80 μL of CellTiter-Glo (Promega) was added to each well and […] was measured.
`CCOCCN1CC(=O)NC2(CCCC2)C(=O)N(C)[C@@H](C2CCCCC2)C(=O)N(C)[C@H](C(=O)N2CCCCC2)CC(=O)N(C)[C@@H](CC(C)C)C(=O)N[C@@H]([C@@H](C)CC)C(=O)N(C)CC(=O)N(C)CC(=O)N(C)[C@@H](CC2CCCCC2)C(=O)N(C)CC(=O)N[C@@H](CCc2ccc(C(F)(F)F)c(Cl)c2)C1=O` [Compound 872] ([NMeL]I[Sar][Sar][NMeCha][Sar][hPhe(3-Cl-4-CF3)][Gly(N-(CH2)2OEt)][Ac5c][NMeChg][NMeD]-Piperidide; lactam N-11) registered an IC50 of 100 to 500 nM. As for `CC[C@H](C)[C@@H]1NC(=O)[C@H](CC(C)C)N(C)C(=O)C[C@@H](C(=O)N2CCCCC2)NC(=O)[C@H](C(C)C)N(C)C(=O)C2(CCCC2)NC(=O)[C@@H]2CCCN2C(=O)[C@H](CCc2ccc(C(F)(F)F)c(Cl)c2)NC(=O)CN(C)C(=O)[C@H](CC2CCCCC2)N(C)C(=O)[C@@H]2CCN2C(=O)[C@H](C)N(C)C1=O` [Compound 1353] ([NMeL]I[NMeA][Aze][NMeCha][Sar][hPhe(3-Cl-4-CF3)]P[Ac5c][NMeV]D-Piperidide; lactam N-11), the figure is 100 to 500 nM; as for `CC[C@H](C)[C@@H]1NC(=O)[C@H](CC(C)C)N(C)C(=O)C[C@@H](C)NC(=O)[C@H](CC(C)C)N(C)C(=O)C2(CCCC2)NC(=O)[C@@H]2C[C@@H](O)CN2C(=O)[C@H](CCc2ccc(C(F)(F)F)c(F)c2)NC(=O)CN(C)C(=O)[C@H](CC2CCCCC2)N(C)C(=O)CN(C)C(=O)CN(C)C1=O` [Compound 1483, (3S,9S,18S,21S,25R,28S,34S,36R)-9-(cyclohexylmethyl)-3-[2-[3-fluoro-4-(trifluoromethyl)phenyl]ethyl]-36-hydroxy-21,28-diisobutyl-7,10,13,16,22,25,29-heptamethyl-18-[(1S)-1-methylpropyl]spiro[1,4,7,10,13,16,19,22,26,29,32-undecazabicyclo[32.3.0]heptatriacontane-31,1′-cyclopentane]-2,5,8,11,14,17,20,23,27,30,33-undecone] (cyclo([Ac5c][NMeL][d(β3hA)][NMeL]I[Sar][Sar][NMeCha][Sar][hPhe(3-F,4-CF3)][Hyp])), > 500 nM.

Molecule `CC[C@H](C)[C@@H]1NC(=O)[C@H](CC(C)C)N(C)C(=O)C[C@@H](C(=O)N2CCCCC2)N(C)C(=O)[C@H](C(C)C)N(C)C(=O)C2(CCCC2)NC(=O)[C@@H]2CCCN2C(=O)[C@H](CCc2ccc(C(F)(F)F)c(Cl)c2)NC(=O)CN(C)C(=O)[C@H](COCCC(C)C)N(C)C(=O)[C@@H]2CCN2C(=O)[C@H](C)N(C)C1=O` [Compound 470] ([NMeL]I[NMeA][Aze][NMeS](Isopentyl)[Sar][hPhe(3-Cl-4-CF3)]P[Ac5c][NMeV][NMeD]-Piperidide; lactam N-11) showed an IC50 of 100 to 500 nM. The molecule `CC[C@H](C)[C@@H]1NC(=O)[C@H](CC2CC2)N(C)C(=O)C[C@@H](C)NC(=O)[C@H](C(C)C)N(C)C(=O)C2(CCCC2)NC(=O)[C@@H]2CCCN2C(=O)[C@H](CCc2ccc(C(F)(F)F)c(Cl)c2)NC(=O)CN(C)C(=O)[C@H](CC2CCCCC2)N(C)C(=O)[C@@H]2CCN2C(=O)[C@H](C)N(C)C1=O` [Compound 771] (cyclo([Ac5c][NMeV][d(β3hA)][NMeAla(cPr)]I[NMeA][Aze][NMeCha][Sar][hPhe(3-Cl-4-CF3)]P)) yielded an IC50 of 100 to 500 nM.

In the case of `CCCC[C@H]1C(=O)N(C)[C@H](C(=O)N2CCCCC2)CC(=O)N(C)[C@@H](CC(C)C)C(=O)N[C@@H]([C@@H](C)CC)C(=O)N(C)[C@@H](C)C(=O)N2CC[C@H]2C(=O)N(C)[C@@H](CC2CCCCC2)C(=O)N(C)CC(=O)N[C@@H](CCc2ccc(C(F)(F)F)c(Cl)c2)C(=O)N2CCC[C@H]2C(=O)NC2(CCCC2)C(=O)N1C` [Compound 1859] ([NMeL]I[NMeA][Aze][NMeCha][Sar][hPhe(3-Cl-4-CF3)]P[Ac5c][NMeNle][NMeD]-Piperidide; lactam N-11), the IC50 was 100 to 500 nM. With `CC[C@H](C)[C@@H]1NC(=O)[C@H](CC(C)C)N(C)C(=O)C[C@@H](C(=O)N2CCCCC2)N(C)C(=O)[C@H](C2CCCC2)N(C)C(=O)C2(CCCC2)NC(=O)[C@@H]2CCCN2C(=O)[C@H](CCc2ccc(C(F)(F)F)c(Cl)c2)NC(=O)CN(C)C(=O)[C@H](C2CCC2)N(C)C(=O)[C@@H]2CCN2C(=O)[C@H](C)N(C)C1=O` [Compound 127] ([NMeL]I[NMeA][Aze][NMeGly(cBu)][Sar][hPhe(3-Cl-4-CF3)]P[Ac5c][NMeGly(cPent)][NMeD]-Piperidide; lactam N-11) the figure was 20 to 50 nM.

On to `CC[C@H](C)[C@@H]1NC(=O)[C@H](CC(C)C)N(C)C(=O)C[C@@H](C(=O)N2CCCCC2)N(C)C(=O)[C@H](C(C)C)N(C)C(=O)C2(CCCC2)NC(=O)[C@@H]2CCCN2C(=O)[C@H](CCc2ccc(C(F)(F)F)c(Cl)c2)NC(=O)CN(C)C(=O)[C@H](C(C)C)N(C)C(=O)[C@@H]2CCN2C(=O)[C@H](C)N(C)C1=O` [Compound 1737] ([NMeL]I[NMeA][Aze][NMeV][Sar][hPhe(3-Cl-4-CF3)]P[Ac5c][NMeV][NMeD]-Piperidide; lactam N-11), for which the IC50 is 100 to 500 nM. With `CC[C@H](C)[C@@H]1NC(=O)[C@H](CC(C)C)N(C)C(=O)C[C@@H](C(=O)N2CCCCC2)N(C)C(=O)[C@H](C2CCCC2)N(C)C(=O)C2(CCCC2)NC(=O)[C@@H]2CCCN2C(=O)[C@H](CCc2ccc(C(F)(F)F)c(F)c2)NC(=O)CN(C)C(=O)[C@H](CC2CCCCC2)N(C)C(=O)[C@@H]2CCN2C(=O)[C@H](C)N(C)C1=O` [Compound 563] ([NMeL]I[NMeA][Aze][NMeCha][Sar][hPhe(3-F,4-CF3)]P[Ac5c][NMeGly(cPent)][NMeD]-Piperidide; lactam N-11) the figure was 20 to 50 nM. With `CCCOC[C@H]1C(=O)N(C)CC(=O)N[C@@H](CCc2ccc(C(F)(F)F)c(F)c2)C(=O)N2CCC[C@H]2C(=O)NC2(CCCC2)C(=O)N(C)[C@@H](C2CCCC2)C(=O)N(C)[C@H](C(=O)N2CCCCC2)CC(=O)N(C)[C@@H](CC(C)C)C(=O)N[C@@H]([C@@H](C)CC)C(=O)N(C)[C@@H](C)C(=O)N2CC[C@H]2C(=O)N1C` [Compound 1029] ([NMeL]I[NMeA][Aze][NMeS](Propyl)[Sar][hPhe(3-F,4-CF3)]P[Ac5c][NMeGly(cPent)][NMeD]-Piperidide; lactam N-11) the figure was 20 to 50 nM; with `CC[C@H](C)[C@@H]1NC(=O)[C@H](CC(C)C)N(C)C(=O)C[C@@H](C(=O)N2CCCC2)N(C)C(=O)[C@H](C2CCCCC2)N(C)C(=O)C2(CCCC2)NC(=O)[C@@H]2CCCN2C(=O)[C@H](CCc2ccc(C(F)(F)F)c(Cl)c2)NC(=O)CN(C)C(=O)[C@H](Cc2ccc(C)cc2)N(C)C(=O)[C@@H]2CCN2C(=O)[C@H](C)N(C)C1=O` [Compound 1852] ([NMeL]I[NMeA][Aze][NMePhe(4-Me)][Sar][hPhe(3-Cl-4-CF3)]P[Ac5c][NMeChg][NMeD]-Pyrrolidide; lactam N-11), 20 to 50 nM.

`CC[C@H](C)[C@@H]1NC(=O)[C@H](CC(C)C)N(C)C(=O)C[C@@H](C(=O)N(C)C)N(C)C(=O)[C@H](C2CCCCC2)N(C)C(=O)C2(CCCC2)NC(=O)[C@@H]2CCCN2C(=O)[C@H](CCc2ccc(C(F)(F)F)c(Cl)c2)NC(=O)CN(C)C(=O)[C@H](CC2CCCCC2)N(C)C(=O)[C@@H]2CCN2C(=O)[C@H](C)N(C)C1=O` [Compound 1675] ([NMeL]I[NMeA][Aze][NMeCha][Sar][hPhe(3-Cl-4-CF3)]P[Ac5c][NMeChg][NMeD]-NMe2; lactam N-11) returned a 50% inhibitory concentration (IC50) of 20 to 50 nM. As for `CC[C@H](C)[C@@H]1NC(=O)[C@H](C2CCC2)N(C)C(=O)C[C@@H](C(=O)N2CCCCC2)N(C)C(=O)[C@H](C(C)C)N(C)C(=O)C2(CCCC2)NC(=O)[C@@H]2CCCN2C(=O)[C@H](CCc2ccc(C(F)(F)F)c(Cl)c2)NC(=O)CN(C)C(=O)[C@H](CC2CCCCC2)N(C)C(=O)[C@@H]2CCN2C(=O)[C@H](C)N(C)C1=O` [Compound 1036] ([NMeGly(cBu)]I[NMeA][Aze][NMeCha][Sar][hPhe(3-Cl-4-CF3)]P[Ac5c][NMeV][NMeD]-Piperidide; lactam N-11), the figure is 100 to 500 nM; as for `CC[C@H](C)[C@@H]1NC(=O)[C@H](CC(C)C)N(C)C(=O)C[C@@H](C(=O)N2CCCCC2)N(C)C(=O)[C@H](C2CCCCC2)N(C)C(=O)C2(CCCC2)NC(=O)[C@@H]2C[C@H](c3ccccc3)CN2C(=O)[C@H](CCc2ccc(C(F)(F)F)c(Cl)c2)NC(=O)CN(C)C(=O)[C@H](CC2CCCCC2)N(C)C(=O)CN(C)C(=O)CN(C)C1=O` [Compound 428] ([NMeL]I[Sar][Sar][NMeCha][Sar][hPhe(3-Cl-4-CF3)][Pro(cis-4-Ph)][Ac5c][NMeChg][NMeD]-Piperidide; lactam N-11), 100 to 500 nM; as for `CC[C@H](C)[C@@H]1NC(=O)[C@H](CC(C)C)N(C)C(=O)C[C@@H](C(=O)N2CCCCC2)N(C)C(=O)[C@H](C(C)C)N(C)C(=O)C2(CCCC2)NC(=O)[C@@H]2CCCN2C(=O)[C@H](CCc2ccc(C(F)(F)F)c(Cl)c2)NC(=O)CN(C)C(=O)[C@H](C2CCC2)N(C)C(=O)[C@@H]2CCN2C(=O)[C@H](C)N(C)C1=O` [Compound 446] ([NMeL]I[NMeA][Aze][NMeGly(cBu)][Sar][hPhe(3-Cl-4-CF3)]P[Ac5c][NMeV][NMeD]-Piperidide; lactam N-11), 100 to 500 nM.

Molecule `CCCC[C@H]1C(=O)N2CC[C@H]2C(=O)N(C)[C@@H](CC2CCCCC2)C(=O)N(C)CC(=O)N[C@@H](CCc2ccc(C(F)(F)F)c(Cl)c2)C(=O)N2CCC[C@H]2C(=O)NC2(CCCC2)C(=O)N(C)[C@@H](C(C)C)C(=O)N(C)[C@H](C(=O)N2CCCCC2)CC(=O)N(C)[C@@H](CC(C)C)C(=O)N[C@@H]([C@@H](C)CC)C(=O)N1C` [Compound 1596] ([NMeL]I[NMeNle][Aze][NMeCha][Sar][hPhe(3-Cl-4-CF3)]P[Ac5c][NMeV][NMeD]-Piperidide; lactam N-11) had an IC50 of 100 to 500 nM.
